Reference: US9499550B2 (BRISTOL-MYERS SQUIBB COMPANY, priority 2012, dated 2016)

Tests used:
[1] = tested on: HCV genotype 1a (H77 strain) replicon in HUH-7 cells; assay: HCV replicon luciferase reporter assay, genotype 1a; format: cell-based; conditions: Hepatitis C virus, Huh-7, 72 h, HCV genotype 1a replicon luciferase, 3 days incubation, read-out: LE_1a (EC50, range)
Method in brief: (§1)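 Replicon inhibition for both genotypes was measured as Renilla luciferase signal (EnduRen, 7.5 μM final, 2 h) after 3-day, 37° C exposure of replicon-bearing HUH-7 cells in 4% FCS DMEM, 0.5% DMSO. The 1b construct carries S1179I; the 1a H77 construct carries P1496L and S2204I. Twenty-point, 3-fold dilutions were fitted four-parametrically for EC50, and CC50 was taken from multiplexed Cell Titer-Blue.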

[2] = tested on: HCV genotype 1b (Con1) replicon in HUH-7 cells; assay: HCV replicon luciferase reporter assay, genotype 1b; format: cell-based; conditions: Hepatitis C virus, Huh-7, 72 h, HCV genotype 1b replicon luciferase, 3 days incubation, read-out: LE_1b (EC50, range)
Method in brief: as §1

Row | Structure (SMILES) | EC50 [1] | EC50 [2]
1 | CCC(C)(CC)OC(=O)N[C@@H]1C(=O)N2C[C@H](Oc3nccc4c5c(ccc34)OCCO5)C[C@H]2C(=O)N[C@]2(C(=O)NS(=O)(=O)C3CC3)C[C@H]2/C=C\CC[C@@H](C)C[C@H]1C [Compound 5266, 3-methylpentan-3-yl((2R,6S,7R,9R,13aS,14aR,16aS,Z)-14a-((cyclopropylsulfonyl)carbamoyl)-2-((2,3-dihydro-[1,4]dioxino[2,3-f]isoquinolin-7-yl)oxy)-7,9-dimethyl-5,16-dioxo-1,2,3,5,6,7,8,9,10,11,13a,14,14a,15,16,16a-hexadecahydrocyclopropa[e]pyrrolo[1,2-a][1,4]diazacyclopentadecin-6-yl)carbamate] | < 5.46 nM | < 5.46 nM
2 | C[C@H]1CC/C=C\[C@@H]2C[C@@]2(C(=O)NS(=O)(=O)C2CC2)NC(=O)[C@@H]2C[C@@H](Oc3nccc4c5c(ccc34)OC(F)(F)O5)CN2C(=O)[C@@H](NC(=O)OC(C)(C)C(F)(F)F)[C@H](C)C1 [Compound 5267, 1,1,1-trifluoro-2-methylpropan-2-yl((2R,6S,7R,9S,13aS,14aR,16aS,Z)-14a-((cyclopropylsulfonyl)carbamoyl)-2-((2,2-difluoro-[1,3]dioxolo[4,5-f]isoquinolin-6-yl)oxy)-7,9-dimethyl-5,16-dioxo-1,2,3,5,6,7,8,9,10,11,13a,14,14a,15,16,16a-hexadecahydrocyclopropa[e]pyrrolo[1,2-a][1,4]diazacyclopentadecin-6-yl)carbamate] | 4.82 to 103 nM | 4.82 to 103 nM
3 | C[C@@H]1CC/C=C\[C@@H]2C[C@@]2(C(=O)NS(=O)(=O)C2CC2)NC(=O)[C@@H]2C[C@@H](Oc3nccc4c5c(ccc34)OC(F)(F)O5)CN2C(=O)[C@@H](NC(=O)OC(C)(C)C(F)(F)F)[C@H](C)C1 [Compound 5268, 1,1,1-trifluoro-2-methylpropan-2-yl((2R,6S,7R,9R,13aS,14aR,16aS,Z)-14a-((cyclopropylsulfonyl)carbamoyl)-2-((2,2-difluoro-[1,3]dioxolo[4,5-f]isoquinolin-6-yl)oxy)-7,9-dimethyl-5,16-dioxo-1,2,3,5,6,7,8,9,10,11,13a,14,14a,15,16,16a-hexadecahydrocyclopropa[e]pyrrolo[1,2-a][1,4]diazacyclopentadecin-6-yl)carbamate] | < 5.46 nM | < 5.46 nM
4 | C[C@H]1CC/C=C\[C@@H]2C[C@@]2(C(=O)NS(=O)(=O)C2CC2)NC(=O)[C@@H]2C[C@@H](Oc3nccc4c5c(ccc34)OC(F)(F)O5)CN2C(=O)[C@@H](NC(=O)O[C@H](C)C(F)(F)F)[C@H](C)C1 [Compound 5269, (R)-1,1,1-trifluoropropan-2-yl ((2R,6S,7R,9S,13aS,14aR,16aS,Z)-14a-((cyclopropylsulfonyl)carbamoyl)-2((2,2-difluoro-[1,3]dioxolo[4,5-f]isoquinolin-6-yl)oxy)-7,9-dimethyl-5,16-dioxo-1,2,3,5,6,7,8,9,10,11,13a,14,14a,15,16,16a-hexadecahydrocyclopropa[e]pyrrolo[1,2-a][1,4]diazacyclopentadecin-6-yl)carbamate] | 4.82 to 103 nM | 4.82 to 103 nM
5 | C[C@@H]1CC/C=C\[C@@H]2C[C@@]2(C(=O)NS(=O)(=O)C2CC2)NC(=O)[C@@H]2C[C@@H](Oc3nccc4c5c(ccc34)OC(F)(F)O5)CN2C(=O)[C@@H](NC(=O)O[C@H](C)C(F)(F)F)[C@H](C)C1 [Compound 5270, (R)-1,1,1-trifluoropropan-2-yl ((2R,6S,7R,9R,13aS,14aR,16aS,Z)-14a-((cyclopropylsulfonyl)carbamoyl)-2((2,2-difluoro-[1,3]dioxolo[4,5-f]isoquinolin-6-yl)oxy)-7,9-dimethyl-5,16-dioxo-1,2,3,5,6,7,8,9,10,11,13a,14,14a,15,16,16a-hexadecahydrocyclopropa[e]pyrrolo[1,2-a][1,4]diazacyclopentadecin-6-yl)carbamate] | < 5.46 nM | < 5.46 nM
6 | C[C@H]1CC/C=C\[C@@H]2C[C@@]2(C(=O)NS(=O)(=O)C2CC2)NC(=O)[C@@H]2C[C@@H](Oc3nccc4c5c(ccc34)OC(F)(F)O5)CN2C(=O)[C@@H](NC(=O)OCC2(C)CC2)[C@H](C)C1 [Compound 5271, (1-methylcyclopropyl)methyl ((2R,6S,7R,9S,13aS,14aR,16aS,Z)-14a-((cyclopropylsulfonyl)carbamoyl)-2-((2,2-difluoro-[1,3]dioxolo[4,5-f]isoquinolin-6-yl)oxy)-7,9-dimethyl-5,16-dioxo-1,2,3,5,6,7,8,9,10,11,13a,14,14a,15,16,16a-hexadecahydrocyclopropa[e]pyrrolo[1,2-a][1,4]diazacyclopentadecin-6-yl)carbamate] | 4.82 to 103 nM | 4.82 to 103 nM
7 | C[C@@H]1CC/C=C\[C@@H]2C[C@@]2(C(=O)NS(=O)(=O)C2CC2)NC(=O)[C@@H]2C[C@@H](Oc3nccc4c5c(ccc34)OC(F)(F)O5)CN2C(=O)[C@@H](NC(=O)OCC2(C)CC2)[C@H](C)C1 [Compound 5272, (1-methylcyclopropyl)methyl ((2R,6S,7R,9R,13aS,14aR,16aS,Z)-14a-((cyclopropylsulfonyl)carbamoyl)-2-((2,2-difluoro-[1,3]dioxolo[4,5-f]isoquinolin-6-yl)oxy)-7,9-dimethyl-5,16-dioxo-1,2,3,5,6,7,8,9,10,11,13a,14,14a,15,16,16a-hexadecahydrocyclopropa[e]pyrrolo[1,2-a][1,4]diazacyclopentadecin-6-yl)carbamate] | < 5.46 nM | < 5.46 nM
8 | C[C@H]1CC/C=C\[C@@H]2C[C@@]2(C(=O)NS(=O)(=O)C2CC2)NC(=O)[C@@H]2C[C@@H](Oc3nccc4c5c(ccc34)N(C)CCO5)CN2C(=O)[C@@H](NC(=O)OC(C)(C)C)[C@H](C)C1 [Compound 5275, tert-butyl ((2R,6S,7R,9S,13aS,14aR,16aS,Z)-14a-((cyclopropylsulfonyl)carbamoyl)-7,9-dimethyl-2-((4-methyl-3,4-dihydro-2H-[1,4]oxazino[2,3-f]isoquinolin-7-yl)oxy)-5,16-dioxo-1,2,3,5,6,7,8,9,10,11,13a,14,14a,15,16,16a-hexadecahydrocyclopropa[e]pyrrolo[1,2-a][1,4]diazacyclopentadecin-6-yl)carbamate] | < 5.46 nM | < 5.46 nM
9 | C[C@@H]1CC/C=C\[C@@H]2C[C@@]2(C(=O)NS(=O)(=O)C2CC2)NC(=O)[C@@H]2C[C@@H](Oc3nccc4c5c(ccc34)N(C)CCO5)CN2C(=O)[C@@H](NC(=O)OC(C)(C)C)[C@H](C)C1 [Compound 5276, tert-butyl ((2R,6S,7R,9R,13aS,14aR,16aS,Z)-14a-((cyclopropylsulfonyl)carbamoyl)-7,9-dimethyl-2-((4-methyl-3,4-dihydro-2H-[1,4]oxazino[2,3-f]isoquinolin-7-yl)oxy)-5,16-dioxo-1,2,3,5,6,7,8,9,10,11,13a,14,14a,15,16,16a-hexadecahydrocyclopropa[e]pyrrolo[1,2-a][1,4]diazacyclopentadecin-6-yl)carbamate] | < 5.46 nM | < 5.46 nM
10 | C[C@H]1CC/C=C\[C@@H]2C[C@@]2(C(=O)NS(=O)(=O)C2CC2)NC(=O)[C@@H]2C[C@@H](Oc3nccc4c5c(ccc34)N(C)CCO5)CN2C(=O)[C@@H](NC(=O)OC(C)(C)C(F)(F)F)[C@H](C)C1 [Compound 5277, 1,1,1-trifluoro-2-methylpropan-2-yl((2R,6S,7R,9S,13aS,14aR,16aS,Z)-14a-((cyclopropylsulfonyl)carbamoyl)-7,9-dimethyl-2-((4-methyl-3,4-dihydro-2H-[1,4]oxazino[2,3-f]isoquinolin-7-yl)oxy)-5,16-dioxo-1,2,3,5,6,7,8,9,10,11,13a,14,14a,15,16,16a-hexadecahydrocyclopropa[e]pyrrolo[1,2-a][1,4]diazacyclopentadecin-6-yl)carbamate] | < 5.46 nM | < 5.46 nM
11 | C[C@@H]1CC/C=C\[C@@H]2C[C@@]2(C(=O)NS(=O)(=O)C2CC2)NC(=O)[C@@H]2C[C@@H](Oc3nccc4c5c(ccc34)N(C)CCO5)CN2C(=O)[C@@H](NC(=O)OC(C)(C)C(F)(F)F)[C@H](C)C1 [Compound 5278, 1,1,1-trifluoro-2-methylpropan-2-yl((2R,6S,7R,9R,13aS,14aR,16aS,Z)-14a-((cyclopropylsulfonyl)carbamoyl)-7,9-dimethyl-2-((4-methyl-3,4-dihydro-2H-[1,4]oxazino[2,3-f]isoquinolin-7-yl)oxy)-5,16-dioxo-1,2,3,5,6,7,8,9,10,11,13a,14,14a,15,16,16a-hexadecahydrocyclopropa[e]pyrrolo[1,2-a][1,4]diazacyclopentadecin-6-yl)carbamate] | < 5.46 nM | < 5.46 nM
12 | [2H]C([2H])([2H])C(OC(=O)N[C@@H]1C(=O)N2C[C@H](Oc3nccc4c5c(ccc34)N(C)CCO5)C[C@H]2C(=O)N[C@]2(C(=O)NS(=O)(=O)C3CC3)C[C@H]2/C=C\CC[C@H](C)C[C@H]1C)(C([2H])([2H])[2H])C(F)(F)F [Compound 5279, 1,1,1,3,3,3-hexadeutero-2-(trifluoromethyl)propan-2-yl((2R,6S,7R,9S,13aS,14aR,16aS,Z)-14a-((cyclopropylsulfonyl)carbamoyl)-7,9-dimethyl-2-((4-methyl-3,4-dihydro-2H-[1,4]oxazino[2,3-f]isoquinolin-7-yl)oxy)-5,16-dioxo-1,2,3,5,6,7,8,9,10,11,13a,14,14a,15,16,16a-hexadecahydrocyclopropa[e]pyrrolo[1,2-a][1,4]diazacyclopentadecin-6-yl)carbamate] | 4.82 to 103 nM | 4.82 to 103 nM
